Converted amounts (≈) assume the structure as drawn. Read-outs that look alike come from different tables or passages of the source.
Columns and labels:
[1] = solubility of the sulfonamide in various mixtures of toluene and n-PrOH, determined by HPLC assay; type: physicochemical; details: organic solvent or mixture, read-out: solubility of 1
Description: The temperature of both the head and pot rose from 94° C. to 98° C. during the solvent switch. Toluene and n-PrOH form an azeotrope boiling at 97.2° C. composed of 47.5% toluene and 52.5% n-PrOH. The mixture was allowed to cool gradually to 20° C. over 3h and aged for 12 h. […] The solubility of the sulfonamide in various mixtures of toluene and n-PrOH has been determined by HPLC assay: […]

[2] = hygroscopicity observed at filtration of the wet crystals; type: physicochemical; details: wet crystals during filtration (N2 essential)
Description: The volume of the solution of 15 from the previous step was adjusted to 60 L with ethyl acetate and EtOH (4.8 L) was added. The MsOH (316 mL) was added in 3 L of EtOAc at 45° C. To the deep red homogeneous solution was added 496 g of the title compound Form I seed (10% seed based on the weight of the free amine was employed). The temperature rose to ca. 48° C. and the reaction was aged at 52° C. for 1.5 hours. Analysis indicated complete conversion to the title compound (Form I). (At less than 10% seed longer age (>3 hours) was required). The slurry was allowed to cool to 20° C. overnight and was filtered in a centrifuge under N2. The cake was washed with 20 L of 8% EtOH in EtOAc. […] The batch was dried at 35° C. under vacuum to afford 2.7 Kg (56% overall yield) of the title compound (Form I) (99.9 A % purity; <0.1% enantiomer).

SMILES	solubility ([1]; 5% toluene in n-proh) [µg/mL]	solubility ([1]; 10% toluene in n-proh) [µg/mL]	solubility ([1]; 20% toluene in n-proh) [µg/mL]	solubility ([1]; 25% toluene in n-proh) [µg/mL]	solubility ([1]; 0% toluene in n-PrOH) [µg/mL]	hygroscopicity of the wet crystals [2]
CS(=O)(=O)N1CC2(CCN(C(=O)OCc3ccccc3)CC2)c2ccccc21 [Compound 1, CBZ-Spiroindoline-methanesulfonamide]	3020 (≈ 7.54 mM)	4230 (≈ 10.6 mM)	7510 (≈ 18.8 mM)	10300 (≈ 25.7 mM)	2360 (≈ 5.89 mM)	–
CC(C)(N)C(=O)N[C@H](COCc1ccccc1)C(=O)N1CCC2(CC1)CN(S(C)(=O)=O)c1ccccc12 [Form I, N-[1(R)-[(1,2-dihydro-1-methanesulfonyl-spiro[3H-indole-3,4'-piperdin]-1'-yl)carbonyl]-2-(phenylmethyl-oxy)ethyl]-2-amino-2-methylpropanamide methanesulfonate]	–	–	–	–	–	very hygroscopic
